Results reported in PubChem BioAssay AID248 (DTP/NCI, 2004).
Several values for one entry are separate records, joined by “and”; a condition that tells them apart may be missing. Identical values can stand only once. Inconclusive results and toxic doses are left out. Cut-off read from the data, not from the text of the source: active = T/C of 150% or more; inactive = T/C below 125%.

System: L1210 leukemia ip in BDF1 mice, survival T/C
Assay: NCI In Vivo Anticancer Drug Screen. Data for tumor model L1210 Leukemia (intraperitoneal) in B6D2F1 (BDF1) mice
Details: endpoint: mean survival time, higher = longer survival
In short: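 Value reflects the ratio of survival in compound-treated mice to survival in vehicle-treated controls, with both groups carrying the same transplanted tumor.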

[1] = dose: 100.0 mg/kg/injection, schedule: Q04DX002 (ip), vehicle: Klucel (hydroxypropylcellulose) (HPC)
[2] = dose: 200.0 mg/kg/injection, schedule: Q04DX002 (ip), vehicle: Klucel (hydroxypropylcellulose) (HPC)
[3] = dose: 400.0 mg/kg/injection, schedule: Q04DX002 (ip), vehicle: Klucel (hydroxypropylcellulose) (HPC)
[4] = dose: 100.0 mg/kg/injection, schedule: Q04DX002 (ip), vehicle: saline with Tween-80
[5] = dose: 200.0 mg/kg/injection, schedule: Q04DX002 (ip), vehicle: saline with Tween-80
[6] = dose: 400.0 mg/kg/injection, schedule: Q04DX002 (ip), vehicle: saline with Tween-80
[7] = dose: 100.0 mg/kg/injection, schedule: Q04DX003 (ip), vehicle: saline with Tween-80
[8] = dose: 200.0 mg/kg/injection, schedule: Q04DX003 (ip), vehicle: saline with Tween-80
[9] = dose: 100.0 mg/kg/injection, schedule: Q01DX001 (ip), vehicle: saline
[10] = dose: 200.0 mg/kg/injection, schedule: Q01DX001 (ip), vehicle: saline
[11] = dose: 400.0 mg/kg/injection, schedule: Q01DX001 (ip), vehicle: saline
[12] = dose: 100.0 mg/kg/injection, schedule: Q01DX009 (ip), vehicle: Klucel (hydroxypropylcellulose) (HPC)
[13] = dose: 200.0 mg/kg/injection, schedule: Q01DX009 (ip), vehicle: Klucel (hydroxypropylcellulose) (HPC)
[14] = dose: 400.0 mg/kg/injection, schedule: Q01DX009 (ip), vehicle: Klucel (hydroxypropylcellulose) (HPC)

Measured: T/C

CC(=O)O[C@H]1CC[C@H]2[C@@H]3CC[C@H]4C[C@@H]5[C@H](C[C@]4(C)[C@H]3CC[C@]12C)C5(F)F
inactive: dose: 50.0 mg/kg/injection, schedule: Q01DX001 (sc), vehicle: steriod suspending solution 102 % of control | dose: 50.0 mg/kg/injection, schedule: Q01DX009 (sc), vehicle: steriod suspending solution 103 % of control | dose: 100.0 mg/kg/injection, schedule: Q01DX001 (sc), vehicle: steriod suspending solution 101 % of control | dose: 100.0 mg/kg/injection, schedule: Q01DX009 (sc), vehicle: steriod suspending solution 105 % of control | dose: 200.0 mg/kg/injection, schedule: Q01DX001 (sc), vehicle: steriod suspending solution 98 % of control | dose: 200.0 mg/kg/injection, schedule: Q01DX009 (sc), vehicle: steriod suspending solution 102 % of control | dose: 400.0 mg/kg/injection, schedule: Q01DX001 (sc), vehicle: steriod suspending solution 101 % of control | dose: 400.0 mg/kg/injection, schedule: Q01DX009 (sc), vehicle: steriod suspending solution 102 % of control

CC(C)(C)NS(=O)(=O)CCl
inactive: [1] 111 % of control | [2] 104 % of control | [3] 93 % of control

Cc1ccc(/C(C#N)=C/C2CCC(N(C)C)CC2)cc1 (stereo not given)
inactive: [4] 87 % of control | [5] 93 % of control | [6] 87 % of control

c1cc2c3c(c1)CCC3CCC2 (stereo not given)
inactive: [7] 90 % of control | [8] 95 % of control | dose: 400.0 mg/kg/injection, schedule: Q04DX003 (ip), vehicle: saline with Tween-80 97 % of control

CN1CCC(O)(c2ccc(F)cc2)C(C(=O)c2ccc(F)cc2)C1 (stereo not given)
inactive: dose: 50.0 mg/kg/injection, schedule: Q01DX001 (ip), vehicle: carboxymethylcellulose (CMC) 100 % of control | dose: 100.0 mg/kg/injection, schedule: Q01DX001 (ip), vehicle: carboxymethylcellulose (CMC) 100 % of control | dose: 200.0 mg/kg/injection, schedule: Q01DX001 (ip), vehicle: carboxymethylcellulose (CMC) 94 % of control | dose: 400.0 mg/kg/injection, schedule: Q01DX001 (ip), vehicle: carboxymethylcellulose (CMC) 94 % of control

CN1C(=O)c2c(ccc3c2OCO3)C2C(O)Cc3cc4c(cc3C21)OCO4 (stereo not given)
inactive: [9] 100 % of control | [10] 94 % of control | [11] 107 % of control

O=C(Nc1ccc(CCO)cc1)c1cccc(F)c1
inactive: [12] 96 % of control | [13] 107 % of control | [14] 91 % of control

ClB(Cl)c1ccc(Br)cc1
inactive: [9] 97 % of control | [10] 86 % of control | [11] 95 % of control

CCOC(=O)NCc1cccc2ccccc12
inactive: dose: 50.0 mg/kg/injection, schedule: Q01DX001 (ip), vehicle: Klucel (hydroxypropylcellulose) (HPC) 93 % of control | dose: 100.0 mg/kg/injection, schedule: Q01DX001 (ip), vehicle: Klucel (hydroxypropylcellulose) (HPC) 98 % of control | dose: 200.0 mg/kg/injection, schedule: Q01DX001 (ip), vehicle: Klucel (hydroxypropylcellulose) (HPC) 90 % of control | dose: 400.0 mg/kg/injection, schedule: Q01DX001 (ip), vehicle: Klucel (hydroxypropylcellulose) (HPC) 86 % of control

Nc1ccn(CC(=O)c2cc3ccccc3[nH]2)c(=O)n1
inactive: [4] 101 % of control | [5] 97 % of control | [6] 108 % of control

O=C(c1ccccc1)C(C(=O)c1ccccc1)C(c1ccccc1)C(C(=O)c1ccccc1)C(c1ccccc1)c1ccccc1 (stereo not given)
inactive: [9] 87 % of control | [10] 89 % of control | [11] 92 % of control and 91 % of control

S=C(Nc1ccccc1)Nc1ccc(NC(=S)Nc2ccccc2)cc1
inactive: dose: 100.0 mg/kg/injection, schedule: Q01DX001 (ip), vehicle: saline with Tween-80 96 % of control | dose: 200.0 mg/kg/injection, schedule: Q01DX001 (ip), vehicle: saline with Tween-80 92 % of control

CCOC(=O)NCCNC(=O)OCC
inactive: dose: 75.0 mg/kg/injection, schedule: Q01DX001 (ip), vehicle: Klucel (hydroxypropylcellulose) (HPC) 105 % of control | dose: 150.0 mg/kg/injection, schedule: Q01DX001 (ip), vehicle: Klucel (hydroxypropylcellulose) (HPC) 95 % of control | dose: 300.0 mg/kg/injection, schedule: Q01DX001 (ip), vehicle: Klucel (hydroxypropylcellulose) (HPC) 100 % of control

Cc1cc(Cl)c(=O)n(-c2ccc(Cl)cc2)n1
inactive: dose: 50.0 mg/kg/injection, schedule: Q04DX003 (ip), vehicle: saline with Tween-80 109 % of control | [7] 103 % of control | [8] 98 % of control

CC1CN=C(c2ccc(NC(=O)Nc3ccc(NC(=O)c4ccc(C5=NCC(C)N5)cc4)cc3)cc2)N1 (stereo not given)
inactive: dose: 62.5 mg/kg/injection, schedule: Q01DX Z (oral), vehicle: water 97 % of control | dose: 125.0 mg/kg/injection, schedule: Q01DX Z (oral), vehicle: water 101 % of control | dose: 250.0 mg/kg/injection, schedule: Q01DX Z (oral), vehicle: water 100 % of control | dose: 500.0 mg/kg/injection, schedule: Q01DX Z (oral), vehicle: water 105 % of control

O=C(Nc1ccc(C(=O)O)cc1)Nc1cccc2ccccc12
inactive: [1] 113 % of control | [2] 93 % of control | [3] 97 % of control

O=C(O)C(Cc1cnc[nH]1)Nc1nc(NC(Cc2cnc[nH]2)C(=O)O)[nH]c(=O)n1 (stereo not given)
inactive: dose: 6.25 mg/kg/injection, schedule: Q01DX009 (ip), vehicle: Klucel (hydroxypropylcellulose) (HPC) 101 % of control | dose: 12.5 mg/kg/injection, schedule: Q01DX009 (ip), vehicle: Klucel (hydroxypropylcellulose) (HPC) 108 % of control | dose: 25.0 mg/kg/injection, schedule: Q01DX009 (ip), vehicle: Klucel (hydroxypropylcellulose) (HPC) 115 % of control

Cc1ccc(NC(=O)COc2ccc([N+](=O)[O-])cc2Cl)cc1S(=O)(=O)F
inactive: dose: 87.5 mg/kg/injection, schedule: Q04DX003 (ip), vehicle: gum acacia 97 % of control | dose: 175.0 mg/kg/injection, schedule: Q04DX003 (ip), vehicle: gum acacia 100 % of control | dose: 350.0 mg/kg/injection, schedule: Q04DX003 (ip), vehicle: gum acacia 94 % of control

Cc1ccc(S(=O)(=O)N2CCOCC2)cc1
inactive: dose: 100.0 mg/kg/injection, schedule: Q04DX003 (ip), vehicle: Klucel (hydroxypropylcellulose) (HPC) 98 % of control | dose: 200.0 mg/kg/injection, schedule: Q04DX003 (ip), vehicle: Klucel (hydroxypropylcellulose) (HPC) 100 % of control | dose: 400.0 mg/kg/injection, schedule: Q04DX003 (ip), vehicle: Klucel (hydroxypropylcellulose) (HPC) 108 % of control

CN/C([S-])=N/N=C/C(=N/N=C(\[S-])NC)c1ccc(-c2ccccc2)cc1.[Cu+2]
inactive: [1] 106 % of control | [2] 95 % of control | [3] 100 % of control

CC(C)(C)NC(=O)Oc1ccc(-c2ccccc2)cc1Cl
inactive: [12] 95 % of control | [13] 100 % of control | [14] 100 % of control
